From article PMC6397271 (Scientific Reports, 2019)
≈ marks a conversion by molar mass, not a printed value.

Assays:
[1] = test system: intracellular MRSA 12673 strain in HEK293 cells; assay: Intracellular antimicrobial (infection) assay; type: cell-based, Staphylococcus aureus; details: MRSA-infected HEK293 cells, 25 µM, 24 h
Description: HEK293 (human embryonic kidney) cells were purchased form Cell Line Services (Germany). The cells were cultured in Dulbecco’s Modified Eagle’s (DMEM) medium with 4.5 g/l glucose (Sigma-Aldrich, Germany), supplemented with 10% fetal bovine serum (FBS, Sigma-Aldrich, Germany) and 1% PEN/STREP (Sigma-Aldrich, Germany). Cells were maintained in a 5% CO2 incubator at 37 °C. The original lines were checked for the presence of mycoplasma.
HEK293 cells were seeded at a density of 1.5 × 10^5 cells/well in 24-well plates in an antibiotic-free medium (DMEM + 10% FBS) and were allowed to adhere overnight. Next, the medium was removed and overnight culture of S. aureus strain (12673) suspended in DMEM + 1% FBS (invasive medium) at a ratio of bacteria/cells 25:1 was added. To enable bacterial invasion, the cells were incubated with bacterial suspensions (37 °C, 5% CO2) for 2 h.
After this period of time extracellular bacteria were eliminated by a 30 min incubation with 20 U/ml lysostaphin. […] The lysis of human cells was carried out with 0.2% Trition-X-100 (Sigma-Aldrich, Germany). The obtained cell lysates were serially diluted in PBS and plated on agar plates and CFU/ml was determined.
The results are presented as the percentage of S. aureus intracellular survival after treatment in comparison to that of non-treated cells (control). The assay was performed in triplicates.

S. aureus MRSA N315 = assay: microbe, parasite or virus in culture; type: cell-based, Staphylococcus aureus; details: microbroth dilution, 96-well, resazurin, 37 °C, 24 h; mean ± SD, at least three independent experiments in triplicates
Text: (§1) Three bacterial strains of MRSA (N315, 12673, 6347) and two of Enterococcus spp. (E. faecium, E. faecalis) were used. With respect to MRSA, N315 represented a reference Van-susceptible strain (GenBank GCA_00000645.1) isolated from a patient while 12673 (Van-intermediately susceptible) and 6347 (a h-VISA which appears at frequency of <10^−5 to 10^−6 is composed of two subpopulations of bacteria: one susceptible and one intermediately resistant)[38] were clinical strains obtained from patients of The Clinical University Centre of Gdańsk (UCK). […] The clinical strain isolates originated from the collection of the Department of Pharmaceutical Technology and Biochemistry, Faculty of Chemistry, Gdańsk University of Technology.
(§2) The strains were grown in Mueller-Hinton broth (MH cation-adjusted, Becton Dickinson) or Brain Heart Infusion broth (BHI, Becton Dickinson), respectively. The cultivation was carried out in an aerobic atmosphere at 37 °C for 24 hours and, afterwards, the bacterial cultures were diluted in geometric progression with a proper broth. Next, 100 µl of each dilution was inoculated in an agar plate and incubated at 37 °C for 24 h. The next procedures included determination of Colony Forming Units (CFU)/ml and minimal inhibitory concentration (MIC) of the compounds in question. The latter procedure was carried out according to the microbroth dilution technique using 96-well plates. The MICs were evaluated by using the metabolic assay based on the resazurin dye. The assay was performed in triplicates.

S. aureus MRSA 12673 = assay: microbe, parasite or virus in culture; type: cell-based, Staphylococcus aureus; details: microbroth dilution, 96-well, resazurin, 37 °C, 24 h; mean ± SD, at least three independent experiments in triplicates
Text: as §1, §2

[2] = test system: S. aureus MRSA hetero-VISA 6347; assay: microbe, parasite or virus in culture; type: cell-based, Staphylococcus aureus; details: microbroth dilution, 96-well, resazurin, 37 °C, 24 h; mean ± SD, at least three independent experiments in triplicates
Text: as §1, §2

[3] = Brain concentration by LC/MS after iv administration; type: in vivo, BALB/c male mice; details: iv, 2 h, LC/MS of brain homogenate
Description: In vivo experiments were performed on BALB/c male mice weighing between 20 and 30 g (the mouse model is widely used for estimation of drug BBB penetration). The animals (obtained from TAZD-CBU) were kept in a 12-hour day and night cycle at room temperature (20–22 °C), humidity 55–56% and fed with a standard diet and water ad libitum for at least 1 week before the experiment. Body temperature and weight were recorded on a regular daily schedule. It is confirmed that all procedures were carried out according to the guidelines outlined by the European Community Council Directive 2010/63/EEC, and they were approved by the local Ethical Committee Resolution 26/2014 (Bydgoszcz, Poland).
The experiments in this section also involved the mouse model described above. […] Similarly to what was stated previously, the mice were sacrificed 2 hours after the administration of the compounds. Their brains were removed immediately from the cranium and weighed. Next, they were homogenized mechanically in the ice and frozen at −80 °C.
Each homogenized mouse brain was centrifuged at 15 000 × g for 10 min. The supernatant was diluted with deionised water (Millipore), filtered (PTFE 0.22 μm filter) and analyzed by UHPLC-ESI/MS with the use of Shimadzu Nexera X2 UHPCL chromatograph and Shimadzu LCMS-2020 mass detector. […]

[4] = test system: S.aureus MRSA hetero-VISA 6347; assay: microbe, parasite or virus in culture; type: cell-based, Staphylococcus aureus; details: TP10 alone
Description: (§3) To find out MICA(with B) and MICB(with A) a checkerboard assay was carried out in 96-well microtiter plates (each test was performed in triplicates). […] Each well in a 96-well plate was inoculated with 100 µL of bacterial inoculum of 1 × 10^5 CFU/mL. For this purpose only bacterial strains of MRSA (N315, 12673 and 6347) were used. Next, the plates were incubated at 37 °C for 24 h.
(§4) FIC index (FICI) is the sum of FICA and FICB. The interpretation of the calculated FICIs is in accordance to the following principle: FICI ≤ 0.5 synergy; FICI > 0.5 and ≤4 indifference (no interaction); FICI > 4, antagonism.

S.aureus MRSA 12673 = assay: microbe, parasite or virus in culture; type: cell-based, Staphylococcus aureus; details: TP10 alone
Description: as §3, §4

S.aureus MRSA N315 = assay: microbe, parasite or virus in culture; type: cell-based, Staphylococcus aureus; details: TP10 alone
Description: as §3, §4

[5] = test system: Enterococcus faecalis 3937158; assay: microbe, parasite or virus in culture; type: cell-based; details: microbroth dilution, 96-well, resazurin, 37 °C, 24 h; mean ± SD, at least three independent experiments in triplicates
Text: as §1, §2

[6] = test system: Enterococcus faecium 3934825; assay: microbe, parasite or virus in culture; type: cell-based; details: microbroth dilution, 96-well, resazurin, 37 °C, 24 h; mean ± SD, at least three independent experiments in triplicates
Text: as §1, §2

CC[C@H](C)[C@H](NC(=O)[C@H](CCCCN)NC(=O)[C@H](CCCCN)NC(=O)[C@H](C)NC(=O)[C@H](CC(C)C)NC(=O)[C@H](C)NC(=O)[C@H](C)NC(=O)[C@H](CC(C)C)NC(=O)[C@H](C)NC(=O)[C@H](CCCCN)NC(=O)[C@H](CC(C)C)NC(=O)[C@H](CC(N)=O)NC(=O)[C@@H](NC(=O)[C@H](CCCCN)NC(=O)CNC(=O)[C@H](CC(C)C)NC(=O)[C@H](CC(C)C)NC(=O)[C@H](Cc1ccc(O)cc1)NC(=O)CNC(=O)[C@H](C)N)[C@@H](C)CC)C(=O)N[C@@H](CC(C)C)C(N)=O [TP10, transportan 10, reference compound]
intracellular MRSA killed (bacterial killing rate) [1]: 26% | MIC (S. aureus MRSA N315): 6.3 ± 1.3 µM (≈ 13.7 µg/mL) | MIC (S. aureus MRSA 12673): 6.3 ± 1.6 µM (≈ 13.7 µg/mL) | MIC [2]: 12.5 ± 3.2 µM (≈ 27.3 µg/mL) | access to the brain / BBB penetration (in words) [3]: did not gain access to the brain | MIC TP10 (B), MICB [4]: 12.5 µM | MIC TP10 (B), MICB (S.aureus MRSA 12673): 6.3 µM | MIC TP10 (B), MICB (S.aureus MRSA N315): 6.3 µM | MIC [5]: 12.5 ± 2.2 µM (≈ 27.3 µg/mL) | MIC [6]: 12.5 ± 3.4 µM (≈ 27.3 µg/mL)
